≈ marks a conversion by molar mass, not a printed value. Where a name gives a salt, the structure may show the parent alone.

As a reminder, the solubility is how much of the substance goes into solution per volume. Low values mean a poorly soluble substance, high ones a readily soluble substance.

Series [1] can be described thus: Solubility to fasted state simulated intestinal fluid. The series is classed as physicochemical. Conditions: fassif, kinetic from dmso stock, fasted state simulated intestinal fluid (pH 6.5), 37° C. The method, then:
Method of Measuring Solubility to Fasted State Simulated Intestinal Fluid
To a 96-well plate, 2 μL of a dimethyl sulfoxide solution of the compound relating to the present invention or that of the compound BAY 43-9006 was poured at one time, respectively, and fasted state simulated intestinal fluid (pH 6.5) was added 200 μL by 200 μL, and the plate was shaken at 37° C. for 20 hours. The solution was filtered with a membrane filter and 101 μL of the filtrate was transferred to an UV plate, and 100 μL of a mixed solution of ethanol:water=2:1 was added thereto. On the other hand, as a standard solution, 2 μL of a dimethyl sulfoxide solution was added to a solution containing 4 μL of dimethyl sulfoxide, 400 μL of ethanol and 200 μL of water and the obtained solution was transferred 101 μL by 101 μL to the UV plate and to this UV plate, the simulated fasting bile-containing intestinal juice (pH 6.5) was added 100 μL by 100 μL. The solubility was calculated by the following equation. Solubility=(absorbance of sample solution-blank)/(absorbance of standard solution-blank)×[…]
165 μL is a concentration of the standard solution.
Composition of Fasted State Simulated Intestinal Fluid
Fasted state simulated intestinal fluid was prepared in accordance with E. Galia et al., Pharm. Res., 698, 1998.
To about 90 mL of water, 161 mg of taurocholic acid, 59 mg of L-α-phosphatidylcholine, 0.39 g of potassium dihydrogenphosphate and 0.77 g of potassium chloride were added and the pH of the mixture solution […] and the mixture solution was filtered with a membrane filter.

Series [2] concerns the target T1, recombinant Raf-1 protein (activated type GST-Raf-1) (Homo sapiens, UniProt P04049).
T1 construct: fused on or other part: GST tag fused to Raf-1
The series is described as follows: RAF-1 enzyme inhibition test (33P incorporation into MEK 1 protein). Conditions: 10 μM ATP, GST-MEK1 substrate, 30° C., 45 minutes; read-out: Raf-1 Enzyme Inhibition, 50% Enzyme Inhibition Concentration (IC50 value). The series is classed as biochemical. The method, then: RAF-1 Enzyme Inhibition Test
With respect to the compounds relating to the present invention and the known compound (BAY 43-9006):
[drawing 660] the Raf-1 protein inhibition activity was measured. The enzymatic reaction was measured by incorporation of ^33P-phosphoric acid into MEK 1 protein by a recombinant Raf-1 protein. The activity was measured by preparing 50 μL of a reaction solution containing a dimethyl sulfoxide solution of the compound relating to the present invention or the compound BAY 43-9006 at a varied concentration [as the final concentration, the reaction solution containing […] of TRIS hydrochloric buffer (pH 7.5), 1 mM of dithiothreitol, 100 mM of sodium chloride, 10 mM of potassium fluoride, 1 mM of sodium vanadate, 10 mM of magnesium chloride, 10 μM of adenosine triphosphate (ATP, containing ^33P-ATP of 12580Bq), 2 μg of GST-MEK1 and 25 ng of an activated type GST-Raf-1]; keeping the reaction solution at 30° C. for 45 minutes; adding 100% trichloroacetic acid to the reaction solution in an amount twice the volume of the reaction solution to precipitate a proteinous component; recovering the precipitate on a glass filter; and measuring the radioactivity of the recovered product. The 50% inhibition concentration (IC50) was obtained from the inhibition ratio to a sample-free reference.
The compound BAYT 43-9006 was prepared on the basis of the description (Example 41) of WO 00/42012.

T1 sequence (P04049 349-648 limits assumed): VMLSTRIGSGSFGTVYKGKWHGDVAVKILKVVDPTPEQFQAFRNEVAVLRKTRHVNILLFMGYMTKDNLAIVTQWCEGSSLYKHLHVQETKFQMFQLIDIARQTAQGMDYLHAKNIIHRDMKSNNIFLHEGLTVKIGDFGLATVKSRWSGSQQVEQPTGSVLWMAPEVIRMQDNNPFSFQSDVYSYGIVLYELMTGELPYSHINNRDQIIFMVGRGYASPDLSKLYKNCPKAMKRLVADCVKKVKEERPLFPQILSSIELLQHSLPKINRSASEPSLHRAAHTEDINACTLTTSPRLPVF

For the compound `C=Cc1nc2c(N)ncnc2n1-c1ccc(NC(=O)Nc2cc(CN3CCN(C)CC3)cc(C(F)(F)F)c2)cc1` [Table 2, Compound 28], the solubility at 20 h in series [1] was 238 µg/mL (≈ 431 µM). Also, in series [2], the IC50 stood at 69 nM.

Turning to `CNc1ncnc2c1ncn2-c1ccc(NC(=O)Nc2cc(CCN3CCOCC3)cc(C(F)(F)F)c2)cc1` [Table 2, Compound 73, 1-[4-(6-(Methylamino)purin-9-yl)phenyl]-3-[3-(2-morpholin-4-yl-ethyl)-5-(trifluoromethyl)phenyl]urea], in series [2], the IC50 turned out to be 84 nM.

For `CNc1ncnc2c1ncn2-c1ccc(NC(=O)Nc2ccc(CCCN3CCCCC3)c(C(F)(F)F)c2)cc1` [Table 2, Compound 78, 1-[4-(6-(Methylamino)purin-9-yl)phenyl]-3-[4-[3-piperidin-1-yl-propyl]-3-(trifluoromethyl)phenyl]-urea], the IC50 in series [2] came to 140 nM.

Turning to `CNc1ncnc2c1ncn2-c1ccc(NC(=O)Nc2cc(OC3CCN(C)CC3)cc(C(F)(F)F)c2)cc1` [Table 2, Compound 91, 1-[4-(6-(Methylamino)purin-9-yl)phenyl]-3-[3-(1-methyl-piperidin-4-yloxy)-5-(trifluoromethyl)phenyl]-urea], the IC50 in series [2] is 270 nM.

As for `Nc1ncnc2ncn(-c3ccc(NC(=O)Nc4ccc(Cl)c(C(F)(F)F)c4)cc3)c12` [Table 3, Compound 1, 1-[4-(6-(Aminopurin-7-yl)phenyl)-3-(4-chloro-3-(trifluoromethyl)phenyl)urea hydrochloride], the IC50 in series [2] amounted to 51 nM.

For `CN1CCN(Cc2cc(NC(=O)Nc3ccc(-n4cnc5ncnc(N)c54)cc3)cc(C(F)(F)F)c2)CC1` [Table 3, Compound 4], in series [1], the concentration in solution (solubility at 20 h) was 219 µg/mL (≈ 417 µM). Further, the IC50 in series [2] was determined as 53 nM.

In the case of `CN(C)CCNC(=O)c1cc(NC(=O)Nc2ccc(-n3cnc4ncnc(N)c43)cc2)cc(C(F)(F)F)c1` [Table 3, Compound 9, 3-{3-[4-(6-Aminopurin-7-yl)phenyl]ureido}-N-(2-(dimethylamino)ethyl)-5-(trifluoromethyl)benzamide], in series [2], the IC50 is 85 nM.

As to `CNc1ncnc2c1ncn2-c1ccc(NC(=O)Nc2cc(CCN3CCCCC3)cc(C(F)(F)F)c2)cc1` [Table 3, Compound 30, 1-[4-(6-(Methylamino)purin-9-yl)phenyl]-3-[3-(2-piperidin-1-yl-ethyl)-5-(trifluoromethyl)phenyl]urea], the IC50 in series [2] was 170 nM.

Consider `CNc1ncnc2c1ncn2-c1ccc(NC(=O)Nc2cc(CCN3CCCC3)cc(C(F)(F)F)c2)cc1` [Table 3, Compound 31, 1-[4-(6-(Methylamino)purin-9-yl)phenyl]-3-[3-(2-pyrrolidin-1-yl-ethyl)-5-(trifluoromethyl)phenyl]urea], for which the IC50 in series [2] was found to be 130 nM.

Take `CNc1ncnc2c1ncn2-c1ccc(NC(=O)Nc2cc(CCCN3CCCC3)cc(C(F)(F)F)c2)cc1` [Table 3, Compound 45, 1-[4-(6-(Methylamino)purin-9-yl)phenyl]-3-[3-(3-pyrrolidin-1-yl-propyl)-5-(trifluoromethyl)phenyl]-urea]: the concentration in solution in series [1] (solubility at 20 h) was 79 µg/mL (≈ 147 µM). For the same compound, in series [2], the IC50 turned out to be 73 nM.
